Source: patent US20100137315A1, “Sphingosine Kinase Inhibitors and Methods of Their Use” (APOGEE BIOTECHNOLOGY CORPORATION, priority 2005, published 2010)
Read-outs that look alike come from different tables or passages of the source.

How the values were obtained:
[1] = system: MCF-7 human breast adenocarcinoma cells; assay: Cytotoxicity, SRB assay, 48 h; assay type: cell-based; details: Table 6, 48 h, SRB, inhibition of cell proliferation, read-out: MCF-7 IC50
Method: To further assess the biological efficacies of the Compounds in intact cells, each Compound was evaluated for cytotoxicity using human cancer cell lines. These experiments followed methods that have been extensively used. Cell lines tested included MCF-7 human breast adenocarcinoma cells. The indicated cell lines were treated with varying doses of the test Compound for 48 h. Cell survival was then determined using the SRB binding assay (Skehan et al., 1990, J Natl Cancer Inst 82: 1107), and the concentration of compound that inhibited proliferation by 50% (the IC50) was calculated. Values (in μM) represent the mean±sd for replicate trials.

recombinant human SK = biological target: T1, recombinant human SK (Homo sapiens, UniProt Q9NYA1); assay: Inhibition of recombinant human SK, LC/MS/MS assay; assay type: biochemical; details: 6 μg/ml compound
T1 construct: glutathione-S-transferase (GST) (N); made in house; host or cells: bacteria (pGEX vector)
Method: An assay for identifying inhibitors of recombinant human SK has been established (French et al., 2003, Cancer Res 63: 5962). cDNA for human SK was subcloned into a pGEX bacterial expression vector, which results in expression of the enzyme as a fusion protein with glutathione-S-transferase, and the fusion protein is then purified on a column of immobilized glutathione. SK activity is measured by incubation of the recombinant SK with [^3H]sphingosine and 1 mM ATP under defined conditions, followed by extraction of the assay mixture with chloroform:methanol under basic conditions. […] Radioactivity in aliquots of the aqueous phase is then quantified as a measure of [^3H]S1P formation. There is a low background level of partitioning of [^3H]sphingosine into the aqueous phase, and addition of the recombinant SK greatly increases the formation of [^3H]S1P.
In an alternate assay procedure, the recombinant human SK was incubated with unlabeled sphingosine and ATP as described above. After 30 minutes, the reactions were terminated by the addition of acetonitrile to directly extract the newly synthesized S1P. The amount of S1P in the samples is then quantified as follows. C17 base D-erythro-sphingosine and C17 S1P are used as internal standards for sphingosine and S1P, respectively. These seventeen-carbon fatty acid-linked sphingolipids are not naturally produced, making these analogs excellent standards. The lipids are then fractionation by High-Performance Liquid Chromatography using a C8-reverse phase column eluted with 1 mM methanolic ammonium formate/2 mM aqueous ammonium formate. A Finnigan LCQ Classic LC-MS/MS is used in the multiple reaction monitoring positive ionization mode to acquire ions at m/z of 300 (precursor ion)→282 (product ion) for sphingosine and 380→264 for S1P. Calibration curves are generated by plotting the peak area ratios of the synthetic standards for each sphingolipid, and used to determine the normalized amounts of sphingosine and S1P in the samples.
Each Compound of this invention was tested for its ability to inhibit recombinant SK using the LC/MS/MS assay described above. Typically, the Compounds were individually dissolved in dimethylsulfoxide and tested at a final concentration of 6 micrograms/ml.

T1 sequence (Q9NYA1 whole entry): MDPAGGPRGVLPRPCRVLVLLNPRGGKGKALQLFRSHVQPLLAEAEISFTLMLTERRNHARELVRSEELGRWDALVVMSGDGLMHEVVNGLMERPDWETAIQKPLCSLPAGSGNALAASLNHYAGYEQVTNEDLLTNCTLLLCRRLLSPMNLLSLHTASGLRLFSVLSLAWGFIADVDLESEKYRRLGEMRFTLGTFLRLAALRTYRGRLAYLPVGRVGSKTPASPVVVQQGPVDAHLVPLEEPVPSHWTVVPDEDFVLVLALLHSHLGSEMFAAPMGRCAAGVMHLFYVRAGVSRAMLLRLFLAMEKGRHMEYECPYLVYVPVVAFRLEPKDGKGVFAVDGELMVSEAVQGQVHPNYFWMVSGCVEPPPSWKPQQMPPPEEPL

| Molecule | IC50 ([1]; Homo sapiens, MCF7) | inhibition at 6 µg/mL (recombinant human SK) | IC50 [1] |
| --- | --- | --- | --- |
| CCCC(=O)Oc1cc(C=CC(=O)Nc2nc(-c3ccc(Cl)cc3)cs2)ccc1OC [Compound 18, Butyric acid 5-{2-[4-(4-chloro-phenyl)-thiazol-2-ylcarbamoyl]-vinyl}-2-methoxy-phenyl ester] | 2.7 µM | – | – |
| CCCC(=O)Oc1ccc(CC(=O)Nc2nc(-c3ccc(Cl)cc3)cs2)cc1[N+](=O)[O-] [Compound 30, Butyric acid 4-{[4-(4-chloro-phenyl)-thiazol-2-ylcarbamoyl]-methyl}-2-nitro-phenyl ester] | 32 µM | 0% | – |
| CCCCCCCCCCCCCC(=O)Nc1nc2cc(Cl)ccc2o1 [Compound 91, Tetradecanoic Acid (5-chloro-benzooxazol-2-yl)-amide] | 2.6 µM | – | – |
| O=C(Nc1nc2cc(Cl)ccc2s1)c1ccccc1O [Compound 96, N-(5-Chloro-benzothiazol-2-yl)-2-hydroxy-benzamide] | 24 µM | – | – |
| 4-(4-Chloro-phenyl)-thiazole-2-carboxylic acid (2-pyridin-4-yl)-amide [Compound 74] | – | – | 120 µM |
| CC(=O)Oc1ccc(C=CC(=O)Nc2nc(-c3ccc(Cl)cc3)cs2)cc1 [Compound 12, Acetic acid 4-{2-[4-(4-chloro-phenyl)-thiazol-2-ylcarbamoyl]-vinyl}-phenyl ester] | 125 µM | – | – |
| CCCC(=O)Oc1ccccc1C=CC(=O)Nc1nc(-c2ccc(Cl)cc2)cs1 [Compound 13, Butyric acid 2-{2-[4-(4-chloro-phenyl)-thiazol-2-ylcarbamoyl]-vinyl}-phenyl ester] | 2.3 µM | 0% | – |
| O=C(C=Cc1ccccc1)Nc1nc(-c2ccc(Cl)cc2)cs1 [Compound 7, N-[4-(4-Chloro-phenyl)-thiazol-2-yl]-3-phenyl-acrylamide] | 18 µM | 71% | – |
| Clc1ccc(-c2csc(N(Cc3ccccc3)Cc3ccccc3)n2)cc1 [Compound 72, Dibenzyl-[4-(4-chloro-phenyl)-thiazol-2-yl]-amine] | 127 µM | 79% | – |
| O=C(C=Cc1ccc([N+](=O)[O-])cc1)Nc1nc2cc(Cl)ccc2o1 [Compound 89, N-(5-Chloro-benzooxazol-2-yl)-3-(4-nitro-phenyl)-acrylamide] | 1.2 µM | – | – |
| CCCC(=O)Oc1ccc(CC(=O)Nc2nc(-c3ccc(Cl)cc3)cs2)cc1OC [Compound 16, Butyric acid 4-{[4-(4-chloro-phenyl)-thiazol-2-ylcarbamoyl]-methyl}-2-methoxy-phenyl ester] | 5.6 µM | – | – |
| C=CCCCCCCCCC(=O)Nc1nc(-c2ccc(Cl)cc2)cs1 [Compound 4, Undec-10-enoic acid [4-(4-chloro-phenyl)-thiazol-2-yl]-amide] | 33 µM | 53% | – |
| Clc1ccc(-c2csc(N(CCCc3ccccc3)CCCc3ccccc3)n2)cc1 [Compound 71, [4-(4-Chloro-phenyl)-thiazol-2-yl]-bis-(3-phenyl-propyl)-amine] | 111 µM | 44% | – |
| CCCC(=O)Oc1ccc(C=CC(=O)Nc2nc(-c3ccc(Cl)cc3)cs2)cc1OC(=O)CCC [Compound 11, Butyric acid 2-butyryloxy-5-{2-[4-(4-chloro-phenyl)-thiazol-2-ylcarbamoyl]-vinyl}-phenyl ester] | 10 µM | – | – |
| CCCCCCCCC=CCCCCCCCC(=O)Nc1nc(-c2ccc(Cl)cc2)cs1 [Compound 6, Octadec-9-enoic acid [4-(4-chloro-phenyl)-thiazol-2-yl]-amide] | 105 µM | 0% | – |
| CCCC(=O)Oc1cccc(C=CC(=O)Nc2nc(-c3ccc(Cl)cc3)cs2)c1 [Compound 14, Butyric acid 3-{2-[4-(4-chloro-phenyl)-thiazol-2-ylcarbamoyl]-vinyl}-phenyl ester] | 2.9 µM | 0% | – |
| COc1cc(C=CC(=O)Nc2nc(-c3cccc(Cl)c3)cs2)ccc1O [Compound 9, N-[4-(3-Chloro-phenyl)-thiazol-2-yl]-3-(4-hydroxy-3-methoxy-phenyl)-acrylamide] | 7.8 µM | – | – |
| O=C(Nc1nc2cc(Cl)ccc2o1)c1ccccc1[N+](=O)[O-] [Compound 87, N-(5-Chloro-benzooxazol-2-yl)-2-nitro-benzamide] | 9.8 µM | – | – |

| Molecule | IC50 ([1]; Homo sapiens, MCF7) | inhibition at 6 µg/mL (recombinant human SK) | IC50 [1] |
| --- | --- | --- | --- |
| CCCCCCCCCCCCCCCC(=O)Nc1nc2cc(Cl)ccc2o1 [Compound 92, Hexadecanoic Acid (5-chloro-benzooxazol-2-yl)-amide] | 7.6 µM | – | – |
| O=C(C=Cc1ccccc1)Nc1nc2cc(Cl)ccc2o1 [Compound 88, N-(5-Chloro-benzooxazol-2-yl)-3-phenyl-acrylamide] | 1.3 µM | – | – |
| O=C(NCCc1cccc(Oc2ccccc2)c1)c1nc(-c2ccc(Cl)cc2)cs1 [Compound 44, 4-(4-Chloro-phenyl)-thiazole-2-carboxylic acid [2-(3-phenoxy-phenyl)-ethyl]-amide] | – | 69% | – |
| O=C(CCc1ccc(F)cc1F)Nc1nc(-c2ccc(Cl)cc2)cs1 [Compound 47, N-[4-(4-Chloro-phenyl)-thiazol-2-yl]-3-(2,4-difluoro-phenyl)-propionamide] | – | 21% | – |
| O=C(NCc1ccc(OC(F)(F)F)cc1)c1nc(-c2ccc(Cl)cc2)cs1 [Compound 52, 4-(4-Chloro-phenyl)-thiazole-2-carboxylic Acid 4-trifluoromethoxy-benzylamide] | – | 78% | – |
| CN1CCCC1CCNC(=O)c1nc(-c2ccc(Cl)cc2)cs1 (stereo not shown) [Compound 45, 4-(4-Chloro-phenyl)-thiazole-2-carboxylic acid [2-(1-methyl-pyrrolidin-2-yl)-ethyl]-amide] | – | 42% | – |
| O=C(NCc1cc(F)c(F)c(F)c1)c1nc(-c2ccc(Cl)cc2)cs1 [Compound 42, 4-(4-Chloro-phenyl)-thiazole-2-carboxylic acid 3,4,5-trifluoro-benzylamide] | – | 79% | – |
| C=CCCCCCCCCC(=O)Nc1nc2cc(Cl)ccc2o1 [Compound 90, Undec-10-enoic acid (5-chloro-benzooxazol-2-yl)-amide] | 19 µM | – | – |
| CCCC(=O)Oc1ccc(CC(=O)Nc2nc(-c3ccc(Cl)cc3)cs2)cc1OC(=O)CCC [Compound 17, Butyric acid 2-butyryloxy-5-{[4-(4-chloro-phenyl)-thiazol-2-ylcarbamoyl]-methyl}-phenyl ester] | 4 µM | – | – |
| CCCC(=O)Oc1ccc(C=CC(=O)Nc2nc(-c3ccc(Br)cc3)cs2)cc1OC [Compound 20, Butyric acid 4-{2-[4-(4-bromo-phenyl)-thiazol-2-ylcarbamoyl]-vinyl}-2-methoxy-phenyl ester] | – | 6% | – |
| CN1CCN(NC(=O)c2nc(-c3ccc(Cl)cc3)cs2)CC1 [Compound 46, 4-(4-Chloro-phenyl)-thiazole-2-carboxylic Acid (4-methyl-piperazin-1-yl)-amide] | – | 80% | – |
| O=C(Nc1nc(-c2ccc(Cl)cc2)cs1)c1ccc(F)cc1 [Compound 67, N-[4-(4-Chloro-phenyl)-thiazol-2-yl]-4-fluoro-benzamide] | – | 41% | – |
| O=C(Nc1nc(-c2ccc(Cl)cc2)cs1)C(Cl)c1ccccc1 (stereo not shown) [Compound 69, 2-Chloro-N-[4-(4-chloro-phenyl)-thiazol-2-yl]-2-phenyl-acetamide] | – | 55% | – |
| CCCC(=O)Oc1ccc(C(=O)Nc2nc(-c3ccc(Cl)cc3)cs2)cc1OC(=O)CCC [Compound 25, Butyric acid 2-butyryloxy-4-[4-(4-chloro-phenyl)-thiazol-2-ylcarbamoyl]-phenyl ester] | – | 0% | – |
| O=C(NCc1ccc(F)c(Cl)c1)c1nc(-c2ccc(Cl)cc2)cs1 [Compound 39, 4-(4-Chloro-phenyl)-thiazole-2-carboxylic acid 3-chloro-4-fluoro-benzylamide] | – | 69% | – |
| O=C(NCc1ccc(F)cc1Cl)c1nc(-c2ccc(Cl)cc2)cs1 [Compound 38, 4-(4-Chloro-phenyl)-thiazole-2-carboxylic acid 2-chloro-4-fluoro-benzylamide] | – | 75% | – |
| CCCC(=O)Oc1ccc(C=CC(=O)Nc2nc(-c3ccc(C)cc3)cs2)cc1OC [Compound 19, Butyric acid 2-methoxy-4-[2-(4-p-tolyl-thiazol-2-ylcarbamoyl)-vinyl]-phenyl ester] | – | 36% | – |
